From US20100105948A1, “HOP ALPHA ACID OR HOP OIL CONTENT ENHANCER” (COSMO OIL CO., LTD., priority 2007, published 2010)

Legend:
[1] = test system: hop (high alpha acid type Marynka species); assay: Foliar treatment of hop seedlings (Example 2): alpha acid content; yield; format: in vivo; details: for Alpha acid (%): Marynka; for (Reference) Yield (ratio to no treatment %) / Alpha acid (ratio to no treatment): no treatment = 100
Excerpt: Seedlings of a high alpha acid type Marynka species cultivated by conventional method in Poland in 2006 were subjected to foliar treatment at timing shown in Table 4 with an aqueous ALA hydrochloride solution the same as in Example 1.

[2] = test system: hop (Zatecky poloskory cervenak); assay: Foliar treatment of hop seedlings (Example 1): contents of alpha acid, beta acid, hop oils; dry weight; format: in vivo; details: for (Reference) Dry weight / Beta acid (%) / Hop oil myrcene / Hop oil pharnesene / Alpha acid (%) / (Reference) Dry weight, ratio to no treatment / Alpha acid (ratio to no treatment) / Beta acid (ratio to no treatment) / Hop oil myrcene (ratio to no treatment) / Hop oil pharnesene (ratio to no treatment): foliar treatment 5 times; for Alpha acid (%): Zatecky poloskory cervenak; for (Reference) Dry weight, ratio to no treatment / Alpha acid (ratio to no treatment) / Beta acid (ratio to no treatment) / Hop oil myrcene (ratio to no treatment) / Hop oil pharnesene (ratio to no treatment): no treatment = 100
Excerpt: Seedlings of Zatecky poloskory cervenak cultivated by conventional method in Slovakia in 2006 were subjected to foliar treatment at timing shown in Table 1 with an aqueous 5-aminolevulinic acid (ALA) hydrochloride solution shown in Table 2.

[3] = Treatment 1 (basal fertilizer 30% up): 0.05%, 1000 L/ha, 6 times
[4] = Treatment 1: 0.05%, 1000 L/ha, 6 times
[5] = Treatment 2: 0.05%, 1000, 2000, 3000 L/ha at 1st, 3rd, 5th time

NCC(=O)CCC(=O)O [ALA, 5-aminolevulinic acid]
content of an alpha acid ([1]; ALA treatment versus no treatment, Table 5, in words): remarkably increased | (Reference) Yield (kg/ha) [1, 3]: 1610 kg/ha | Alpha acid (%) [1, 3]: 6.98% | (Reference) Yield (ratio to no treatment %) [1, 3]: (104) % | Alpha acid (ratio to no treatment) [1, 3]: (104) | (Reference) Yield (kg/ha) [1, 4]: 1609 kg/ha | Alpha acid (%) [1, 4]: 6.82% | (Reference) Yield (ratio to no treatment %) [1, 4]: (104) % | Alpha acid (ratio to no treatment) [1, 4]: (102) | (Reference) Yield (kg/ha) [1, 5]: 1610 kg/ha | Alpha acid (%) [1, 5]: 6.95% | (Reference) Yield (ratio to no treatment %) [1, 5]: (104) % | Alpha acid (ratio to no treatment) [1, 5]: (104) | contents of an alpha acid, a beta acid, and hop oils ([2]; ALA treatment versus no treatment, Table 3, in words): remarkably increased | (Reference) Dry weight ([2]; 0.02%, 2500 L/ha): 1.76 t/ha | Beta acid (%) ([2]; 0.02%, 2500 L/ha): 4.62% | Hop oil myrcene ([2]; 0.02%, 2500 L/ha): 51.6 | Hop oil pharnesene ([2]; 0.02%, 2500 L/ha): 19.9 | Alpha acid (%) ([2]; 0.02%, 2500 L/ha): 3.26% | (Reference) Dry weight, ratio to no treatment ([2]; 0.02%, 2500 L/ha): 125% | Alpha acid (ratio to no treatment) ([2]; 0.02%, 2500 L/ha): 127 | Beta acid (ratio to no treatment) ([2]; 0.02%, 2500 L/ha): 105 | Hop oil myrcene (ratio to no treatment) ([2]; 0.02%, 2500 L/ha): 149 | Hop oil pharnesene (ratio to no treatment) ([2]; 0.02%, 2500 L/ha): 121 | (Reference) Dry weight ([2]; 0.1%, 500 L/ha): 1.44 t/ha | Beta acid (%) ([2]; 0.1%, 500 L/ha): 4.95% | Hop oil myrcene ([2]; 0.1%, 500 L/ha): 57.0 | Hop oil pharnesene ([2]; 0.1%, 500 L/ha): 17.6 | Alpha acid (%) ([2]; 0.1%, 500 L/ha): 3.11% | (Reference) Dry weight, ratio to no treatment ([2]; 0.1%, 500 L/ha): 103% | Alpha acid (ratio to no treatment) ([2]; 0.1%, 500 L/ha): 121 | Beta acid (ratio to no treatment) ([2]; 0.1%, 500 L/ha): 113 | Hop oil myrcene (ratio to no treatment) ([2]; 0.1%, 500 L/ha): 164 | Hop oil pharnesene (ratio to no treatment) ([2]; 0.1%, 500 L/ha): 107
